Here are results for three compounds from patent US20070066601A1, “Combination of a serotonin reuptake inhibitor and a histamine 3 receptor antagonist, inverse agonist or partial agonist” (H. LUNDBECK A/S, priority 2003, published 2007).

For one test, the system named is cortex synaptosomes. The following applies: cited from earlier work.
Test [1] deals with serotonin levels in ventral hippocampus. The experiment in a line: Microdialysis of brain serotonin levels in rats. It is filed as in vivo, rat. Particulars: for effect on 5-HT levels when compared to citalopram administration alone: P<0.0001. As to the method: Male albino rats of a Wistar-derived strain (285-320 g; Harlan, Zeist, The Netherlands) were used for the experiments. Upon surgery, rats were housed individually in plastic cages (35×35×40 cm), and had free access to food and water. Animals were kept on a 12 h light schedule (light on 7:00 a.m.). The experiments are concordant with the declarations of Helsinki and were approved by the animal care committee of the faculty of mathematics and natural science of the University of Groningen.
Microdialysis of brain serotonin levels was performed using home made I-shaped probes, made of polyacrylonitrile/sodium methyl sulfonate copolymer dialysis fiber (i.d. 220 μm, o.d. 300 μm, AN 69, Hospal, Italy). Preceding surgery rats were anaesthetised using isoflurane (O2/N2O; 300/300 ml/min). Lidocaine-HCl, 10 % (m/v) was used for local anaesthesia. Rats were placed in a stereotaxic frame (Kopf, USA), and probes were inserted into Ventral Hippcampus (V. Hippo, L +4.8 mm, […], V: −8.0 mm) and median prefrontal cortex (PFC, L −0.9 mm; AP: +3.5 mm relative to bregma; V: −6.0 mm (Paxinos and Watson, 1982). After insertion, probes were secured with dental cement.
Rats were allowed to recover for at least 24 h. Probes were perfused with artificial cerebrospinal fluid containing 147 mM NaCl, 3.0 mM KCl, 1.2 mM CaCl2, and 1.2 mM MgCl2, at a flow-rate of 1.5 μl/min (Harvard apparatus, South Natick, Mass., USA). 15 minute microdialysis samples were collected in HPLC vials containing 7.5 μl 0.02 M acetic acid for serotonin analysis.
Twenty-μl microdialysate samples were injected via an autoinjector (CMA/200 refrigerated microsampler, CMA, Sweden) onto a 100×2.0 mm C18 Hypersil 3 μm column (Bester, Amstelveen, the Netherlands) and separated with a mobile phase consisting of 5 g/L di-ammoniumsulfate, 500 mg/L EDTA, 50 mg/L heptane sulphonic acid, 4% methanol v/v, and 30 μI/L of triethylamine, pH 4.65 at a flow of 0.4 ml/min (Shimadzu LC-10 AD). 5-HT was detected amperometrically at a glassy carbon electrode at 500 mV vs Ag/AgCl (Antec Leyden, Leiden, The Netherlands). The detection limit was 0.5 fmol 5-HT per 20 μl sample (signal to noise ratio 3).
Four consecutive microdialysis samples with less then 20% variation were taken as control and set at 100%. Data are presented as percentages of control level (mean±S.E.M.) in time. Statistical analysis was performed using Sigmastat for Windows (SPSS, Jandel Corporation). Treatments were compared versus controls using two way analysis of variance (ANOVA) for repeated measurements, followed by Student Newman Keuls test. Level of significance level was set at p<0.05.

As for `C[C@@H](N)Cc1cnc[nH]1` [R-(alphe)-methylhistamine], in the test with cortex synaptosomes, the “effect on electrical evoked release of tritiated serotonin” value is recorded as “inhibited”.

Take `O=C(c1ccc(OCCCc2cnc[nH]2)cc1)C1CC1` [ciproxifan, Ciproxifan]: the “effects on serotonin levels in ventral hippocampus” value in test [1] (ciproxifan alone, 15 mg/kg s.c., P=0.54 n.s.) is reported as “did not induce any effects”. In test [1] (co-administration of citalopram 10 μmol/kg with ciproxifan 15 mg/kg s.c.), the “effect on 5-HT levels when compared to citalopram administration alone” value was “augmented effect”.

Take `S=C(NC1CCCCC1)N1CCC(c2cnc[nH]2)CC1` [thioperamide, Thioperamide]: the “effect on the inhibition of evoked serotonin release by R-(alphe)-methylhistamine” value with cortex synaptosomes was “reversed”. Moreover, the “effect on 5-HT levels when compared to citalopram administration alone” value in test [1] (co-administration of citalopram 10 μmol/kg with thioperamide 5 mg/kg s.c.) is “augmented effect”. For the same compound, in test [1] (thioperamide alone, 5 mg/kg s.c., P=0.44 n.s.), the “effects on serotonin levels in ventral hippocampus” value is “did not induce any effects”.
